Data: patent US10940139B2, “Compounds that interact with the Ras superfamily for the treatment of cancers, inflammatory diseases, rasopathies, and fibrotic disease” (Shy Therapeutics LLC, priority 2017, dated 2021)

Test system: MIA-PACA2 pancreatic cancer cell lines
Assay: Cell proliferation assay (CellTiter 96 AQueous One)
Assay type: cell-based
Details: Homo sapiens, MIA PaCa-2; at 30 μM, MIA-PACA2
Method: Cell lines: Tumor-derived pancreatic cancer cell lines MIA-PACA2 were purchased from ATCC and grown in complete DMEM-High Glucose medium supplemented with penicillin (100 U/mL), streptomycin (100 μg/mL), and 10% heat-inactivated FBS at 37° C. in a humidified incubator with 5% CO2.
Method: Cells are plated at 1000 cells/well density in 96-wells plate, starved ON, and the next day tested small molecules are added to the cells in the final concentration of 30 μM with 0.3% DMSO 3 hours prior to 10% FBS addition. After serum addition cells are incubated for 6 days at 37° C. in a humidified incubator with 5% CO2. For IC50 value determination, serial dilutions of compounds were added to cells under the same conditions.
Assay: At the end of the incubation period, cell cultures are tested using the CellTiter 96® AQueous One Solution Cell Proliferation Assay kit (Promega Corporation, Madison, Wis.) according to the manufacturer specifications. Briefly, assay is performed by adding 20 μl of the CellTiter 96 Aqueous One Solution Reagent directly to culture wells, followed by for 1-4 hours incubation at 37° C. in a humidified incubator with 5% CO2. At the end of incubation time, absorbance at 492 nm is recorded with the 96-well plate reader Eppendorf AF2200, and degree of small molecule-dependent proliferation inhibition is calculated from raw data assuming No Serum cells value as 100%.

| SMILES | inhibition at 30 µM [%] |
| --- | --- |
| CC(Oc1ccc(C(=O)Nc2nnc(-c3ccccn3)[nH]2)cn1)c1ccccc1 (stereo not shown) [drawing 1425] | 76 to 100 |
| O=C(Nc1nnc(-c2ccccn2)[nH]1)C1CCCN(c2ncccn2)C1 (stereo not shown) [drawing 1426] | 76 to 100 |
| O=C(Cc1ccc(F)cc1)Nc1nnc(-c2ccccn2)[nH]1 [drawing 1427] | 51 to 75 |
| CC(OCc1ccccc1)C(=O)Nc1nnc(-c2ccccn2)[nH]1 (stereo not shown) [drawing 1428] | 51 to 75 |
| CC(COCc1ccccc1)C(=O)Nc1nnc(-c2ccccn2)[nH]1 (stereo not shown) [drawing 1429] | 25 to 50 |
| O=C(Nc1nnc(-c2ccccn2)[nH]1)C1CCCC(C(F)(F)F)C1 (stereo not shown) [drawing 1430] | 76 to 100 |
| O=C(COCc1ccccc1Cl)Nc1nnc(-c2ccccn2)[nH]1 [drawing 1431] | 76 to 100 |
| O=C(Nc1nnc(-c2ccccn2)[nH]1)C1CC1c1ccc(F)cc1 (stereo not shown) [drawing 1432] | 51 to 75 |
| Cc1ccc(CC(=O)Nc2nnc(-c3ccccn3)[nH]2)s1 [drawing 1433] | 76 to 100 |
| O=C(Nc1nnc(-c2ccccn2)[nH]1)c1ccc(OCC2CC2)cc1 [drawing 1434] | 76 to 100 |
| N#Cc1cccc(OCC(=O)Nc2nnc(-c3ccccn3)[nH]2)c1 [drawing 1435] | 25 to 50 |
| Cc1cccc(C(=O)Nc2nnc(-c3ccccn3)[nH]2)n1 [drawing 1436] | 51 to 75 |
| CC(Oc1ccc(C#N)cc1)C(=O)Nc1nnc(-c2ccccn2)[nH]1 (stereo not shown) [drawing 1437] | 76 to 100 |
| O=C(COc1ccc2c(c1)CCC2)Nc1nnc(-c2ccccn2)[nH]1 [drawing 1438] | 1 to 25 |
| O=C(Nc1nnc(-c2ccccn2)[nH]1)C1CCCN(c2cnccn2)C1 (stereo not shown) [drawing 1439] | 76 to 100 |
| O=C(Nc1nnc(-c2ccccn2)[nH]1)c1ccc(NC(=O)c2ccccn2)cc1 [drawing 1440] | 25 to 50 |
| COC(=O)c1cncc(C(=O)Nc2nnc(-c3ccccn3)[nH]2)c1 [drawing 1441] | 25 to 50 |

| SMILES | inhibition at 30 µM [%] |
| --- | --- |
| CCc1ccccc1OCC(=O)Nc1nnc(-c2ccccn2)[nH]1 [drawing 1442] | 76 to 100 |
| CC1CCc2sc(C(=O)Nc3nnc(-c4ccccn4)[nH]3)cc2C1 (stereo not shown) [drawing 1443] | 76 to 100 |
| Cc1nc(-c2ccccn2)sc1C(=O)Nc1nnc(-c2ccccn2)[nH]1 [drawing 1444] | 76 to 100 |
| Cc1nc2nc(C(F)(F)F)nn2c(C)c1CC(=O)Nc1nnc(-c2ccccn2)[nH]1 [drawing 1445] | 51 to 75 |
| COc1cccc(COCC(=O)Nc2nnc(-c3ccccn3)[nH]2)c1 [drawing 1446] | 51 to 75 |
| COc1ccccc1C1CC1C(=O)Nc1nnc(-c2ccccn2)[nH]1 (stereo not shown) [drawing 1447] | 25 to 50 |
| O=C(Cn1c(=O)[nH]c2ccccc21)Nc1nnc(-c2ccccn2)[nH]1 [drawing 1448] | 25 to 50 |
| CN(CC(=O)Nc1nnc(-c2ccccn2)[nH]1)Cc1ccccc1 [drawing 1449] | 51 to 75 |
| NC(=O)c1ccc(OCC(=O)Nc2nnc(-c3ccccn3)[nH]2)cc1 [drawing 1450] | 1 to 25 |
| COc1ccccc1-c1cc(C(=O)Nc2nnc(-c3ccccn3)[nH]2)no1 [drawing 1451] | 76 to 100 |
| O=C(Nc1nnc(-c2ccccn2)[nH]1)c1cccc(N2CCCS2(=O)=O)c1 [drawing 1452] | 1 to 25 |
| CC(C)C(=O)Nc1nc(CC(=O)Nc2nnc(-c3ccccn3)[nH]2)cs1 [drawing 1453] | 76 to 100 |
| CC(C)(C)c1nc(C(=O)Nc2nnc(-c3ccccn3)[nH]2)cs1 [drawing 1454] | 76 to 100 |
| O=C(Nc1nnc(-c2ccccn2)[nH]1)C1=NOC(c2ccccc2)C1 (stereo not shown) [drawing 1455] | 25 to 50 |
| O=C(COc1ccccc1)Nc1nnc(-c2ccccn2)[nH]1 [drawing 1456] | 25 to 50 |
| O=C(Nc1nnc(-c2ccccn2)[nH]1)c1csc(-c2ccco2)n1 [drawing 1457] | 76 to 100 |
| O=C(Nc1nnc(-c2ccccn2)[nH]1)C1CC(=O)N(Cc2cccc(C(F)(F)F)c2)C1 (stereo not shown) [drawing 1458] | 76 to 100 |
